From patent publication US9957270B2, “Fused pyrimidine-based hydroxamate derivatives” (Agency for Science, Technology and Research, priority 2014, dated 2018)
Counter-ions that a name gives are not always drawn. Like-named read-outs stand apart in the source and are kept apart here.

Key:
[1] = system: Raji; experiment: Anti-proliferative assay (cellular IC50), Raji; details: Homo sapiens, read-out: In Vitro Cellular IC50 Raji
[2] = system: MV-4-11; experiment: cells; details: Homo sapiens
[3] = system: HuH-7; experiment: Anti-proliferative assay (cellular IC50), HuH-7; details: Homo sapiens, Huh-7, read-out: In Vitro Cellular IC50 HuH-7
[4] = system: MOLT-4; experiment: Anti-proliferative assay (cellular IC50), MOLT-4; details: Homo sapiens
[5] = system: PLC/PRF/5; experiment: cells; details: Homo sapiens, PLC-PRF-5, read-out: In Vitro Cellular IC50 PLC/PRF/5
[6] = target: HDAC (HeLa nuclear extracts); experiment: HDAC enzyme assay, HeLa nuclear extracts; details: read-out: In Vitro Enzymatic IC50 HDAC (HeLa)
[7] = system: A-431; experiment: Anti-proliferative assay (cellular IC50), A-431; details: Homo sapiens, A-431, read-out: In Vitro Cellular IC50 A-431
[8] = system: U138MG; experiment: Anti-proliferative assay (cellular IC50), U138MG; details: Homo sapiens, U138-MG, read-out: In Vitro Cellular IC50 U138MG
[9] = system: A549; experiment: Anti-proliferative assay (cellular IC50), A549; details: Homo sapiens, A549, read-out: In Vitro Cellular IC50 A549
[10] = system: HEL9217; experiment: Anti-proliferative assay (cellular IC50), HEL9217; details: Homo sapiens, HEL 92.1.7, read-out: In Vitro Cellular IC50 HEL9217
[11] = system: Daudi; experiment: Anti-proliferative assay (cellular IC50), Daudi; details: Homo sapiens, read-out: In Vitro Cellular IC50 Daudi
[12] = system: Pfeiffer; experiment: Anti-proliferative assay (cellular IC50), Pfeiffer; details: Homo sapiens, read-out: In Vitro Cellular IC50 Pfeiffer
[13] = system: 4T1; experiment: cells; details: Mus musculus, 4T1, read-out: In Vitro Cellular IC50 4T1
[14] = system: U87 MG; experiment: Anti-proliferative assay (cellular IC50), U87 MG; details: Homo sapiens, U-87 MG, read-out: In Vitro Cellular IC50 U87 MG
[15] = system: SK-HEP1; experiment: Anti-proliferative assay (cellular IC50), SK-HEP1; details: Homo sapiens, SK-HEP1, read-out: In Vitro Cellular IC50 SK-HEP1
[16] = system: MCF7; experiment: Anti-proliferative assay (cellular IC50), MCF7; details: Homo sapiens
[17] = system: NCI-H460; experiment: Anti-proliferative assay (cellular IC50), NCI-H460; details: Homo sapiens, NCI-H460, read-out: In Vitro Cellular IC50 NCI-H460
[18] = system: HepG2; experiment: Anti-proliferative assay (cellular IC50), HepG2; details: Homo sapiens
[19] = system: HCCLM3; experiment: Anti-proliferative assay (cellular IC50), HCCLM3; details: Homo sapiens, HCCLM3, read-out: In Vitro Cellular IC50 HCCLM3
[20] = system: NCI-H522; experiment: Anti-proliferative assay (cellular IC50), NCI-H522; details: Homo sapiens, NCI-H522, read-out: In Vitro Cellular IC50 NCI-H522
[21] = system: HCT 116; experiment: cells; details: Homo sapiens
[22] = system: MV4-11 tumors; details: EX2 IV 50, IP 100, PO 150 mg/kg; EX78 IV 25, PO 100 mg/kg; Western blot of tumors
[23] = system: HuH-7 xenograft; details: HuH-7, NCr nude mice, 150 mg/kg oral
[24] = Microsomal stability, rat liver microsomes; details: rat, microsomes, 0.75 h, 5 μM, pH 7.4
Description: (§1) GIBIO pooled human liver microsomes (HLM) (Cat # HMMCPL), mouse liver microsomes (MLM) (Cat # BCMCPL), and rat liver microsomes (RLM) (Cat # RTMCPL) were purchased from Life Technologies. […] Samples are incubated for 30, 45, or 60 min. Reaction is terminated with ice-cold acetonitrile 0.3% formic acid. Samples are subsequently centrifuged at 4° C. for 15 min at 20,000×g. The supernatant is analysed by LC-MS.
(§2) Compound in vitro metabolic stability was assayed using liver microsomes (LM) at 0.5 mg/mL of proteins, incubated for 30 min (mouse, MLM), 45 min (rat, RLM), 30 or 45 min (human, HLM). % of remaining parent compound was measured using LC-MS.

[25] = system: HepG2 xenograft
[26] = system: MV-4-11 cells; experiment: Caspase activity assay, MV-4-11 cells; assay type: cell-based, human; details: Homo sapiens, MV4-11, 24 h, read-out: EC50 induction of caspase activity
Description: Cells are cultivated and treated with test compounds in 96-well plates as described in the above Cell Culture and Anti-Proliferative Assays section. […] The incubation time can be extended up to overnight (18 h) if the Caspase activity is low. Staurosporine is used as positive control.
Y Axis is expressed as Mean±SD if applicable.

[27] = system: NCI-H460 xenograft; details: CB17 scid mice, 150 mg/kg oral
[28] = system: MV-4-11 cells; experiment: Cell viability/cytotoxicity assay (CytoTox-Glo), MV-4-11 cells; assay type: cell-based, human; details: Homo sapiens, MV4-11, 48 h, read-out: cell death potency EC50
Description: Cells are cultivated and treated with test compounds in 96-well plates as described in the above Cell Culture and Anti-Proliferative Assays section, the content of dead cells and viable cells are measured using CytoTox-Glo™ Cytotoxicity Assay kit (Promega) per manufacture's protocol. Briefly, CytoTox-Glo™ Cytotoxicity Assay Reagent (48 μL/well) is added to the cells in 96-well plate and the luminescent signals are recorded using a BioTek Synergy H4 reader, then Lysis Reagent (48 μL/well) is added and the luminescent signals derived from both dead and viable cells are recorded. Viability can be calculated by subtracting the luminescent signal resulting from experimental cell death from total luminescent values. Staurosporine is used as positive control.
Fold of cell death of treated vs untreated was monitored at different time points. […] Y Axis is expressed as Mean±SD if applicable.

[29] = system: histone 3 (Lys 9) and α-tubulin acetylation (HDACs) in PC-3 cells; experiment: Western blot, acetylation of histone 3 (Lys 9) and α-tubulin in PC-3 cells; assay type: cell-based, human; details: 24 h, 1 or 10 μM
Description: Proteins in cell lysates are resolved by SDS-PAGE and transferred to PVDF and probed with appropriate primary and secondary antibodies. […] Representative Western blot images are shown in FIG. 15 and analyzed results are presented by FIGS. 17 to 20.
PC-3 cells were treated with test compounds at the following concentrations (all contain 0.1% DMSO) for 24 h at 37° C., and then processed according to section of Western Blot Analysis.
The graph represents results from two Western Blot analyses. […] Vehicle DMSO (0.1%) was used as blank control, and its acH3 level was normalized to 1. Y Axis is expressed as Mean±SD if applicable.
Vehicle DMSO (0.1%) as blank control, and its acetylation level was normalized to 1. Y Axis is expressed as Mean±SD if applicable.

[30] = Microsomal stability, mouse liver microsomes; details: mouse, microsomes, 0.5 h, 5 μM, pH 7.4
Description: as §1, §2

[31] = Microsomal stability, human liver microsomes; details: human, microsomes, 0.75 h, 5 μM, pH 7.4
Description: as §1, §2

[32] = system: HepG2 xenograft; remark: listed apart in the source
Text: In FIG. 26, Efficacy in CB17 scid mice HepG2 xenograft model is shown. […] Vehicle group has BW loss due to increasing tumor burden.

[33] = system: MV-4-11; details: read-out: In Vitro Cellular IC50 MV-4-11; Table 4; 72 h
[34] = system: PC-3; experiment: Anti-proliferative assay (cellular IC50), PC-3; details: read-out: In Vitro Cellular IC50 PC-3; Table 4; 72 h

O=C(CCCOc1cccc(-c2nc(N3CCOCC3)nc3c2ncn3C2CCCC2)c1)NO [compound 100, 4-(3-(9-cyclopentyl-2-morpholino-9H-purin-6-yl)phenoxy)-N-hydroxybutanamide]
IC50 [1]: < 0.5 µM | IC50 ([2]; MV4-11, 72 h, read-out: In Vitro Cellular IC50 MV-4-11): < 0.5 µM | IC50 ([2]; MV4-11, read-out: In Vitro Cellular IC50 MV-4-11): < 0.5 µM | IC50 [3]: < 0.5 µM | IC50 ([4]; MOLT-4, 72 h, read-out: In Vitro Cellular IC50 MOLT-4): < 0.5 µM | IC50 ([4]; MOLT-4, read-out: In Vitro Cellular IC50 MOLT-4): < 0.5 µM | IC50 [5]: 0.5 to 2 µM | IC50 [6]: 0.01 to 0.1 µM | IC50 [7]: 0.5 to 2 µM | IC50 [8]: 0.5 to 2 µM | IC50 [9]: < 0.5 µM | IC50 [10]: < 0.5 µM | IC50 [11]: < 0.5 µM | IC50 [12]: < 0.5 µM | IC50 [13]: 0.5 to 2 µM | IC50 [14]: 0.5 to 2 µM | IC50 [15]: 0.5 to 2 µM | IC50 ([16]; MCF7, 72 h, read-out: In Vitro Cellular IC50 MCF7): < 0.5 µM | IC50 ([16]; MCF7, read-out: In Vitro Cellular IC50 MCF7): < 0.5 µM | IC50 [17]: < 0.5 µM | IC50 ([18]; HepG2, 72 h, read-out: In Vitro Cellular IC50 HepG2): 0.5 to 2 µM | IC50 ([18]; HepG2, read-out: In Vitro Cellular IC50 HepG2): 0.5 to 2 µM | IC50 [19]: 2 to 10 µM | IC50 [20]: 0.5 to 2 µM | IC50 ([21]; HCT-116, 72 h, read-out: In Vitro Cellular IC50 HCT 116): < 0.5 µM | IC50 ([21]; HCT-116, read-out: In Vitro Cellular IC50 HCT 116): < 0.5 µM

O=C(CCCCCCn1cnc2c(N3CCOCC3)nc(-c3cccc(CO)c3)nc21)NO [compound 2, N-hydroxy-7-(2-(3-(hydroxymethyl)phenyl)-6-morpholino-9H-purin-9-yl)heptanamide]
Hyperacetylation of H3 in MV4-11 tumors [22]: hyperacetylation of H3 in MV4-11 tumors | Tolerability [23]: well-tolerated | maximum body weight loss vs vehicle group [23]: less than 5% | Microsomal Stability RLM, % of remaining parent compound [24]: 57% | Tolerability ([25]; NCr nude mice, 150 mg/kg oral): well tolerated | EC50 [26]: 0.5 µM | Tolerability [27]: well tolerated | EC50 [28]: 0.069 µM | Hyperacetylation of histone 3 (Lys 9) and α-tubulin [29]: the hyperacetylation effect is dose-dependent | Microsomal Stability MLM, % of remaining parent compound [30]: 99% | Microsomal Stability HLM, % of remaining parent compound [31]: 99%

CNC(=O)c1cc(Oc2ccc(NC(=O)Nc3ccc(Cl)c(C(F)(F)F)c3)cc2)ccn1 [sorafenib tosylate]
Tumor growth inhibition (TGI) ([25]; HepG2, NCr nude mice, 98 mg/kg oral QD×5 per week, day 18): 71% | Tumor growth inhibition (TGI) ([32]; HepG2, CB17 scid mice, 100 mg/kg QD×5×2 then 80 mg/kg QD×5×2 oral, day 26): 98% | Tolerability ([32]; mouse, in vivo, po, 100 mg/kg): not well tolerated

(N-hydroxy-7-(2-(3-(1- (hydroxyimino)ethyl)-4- methoxyphenyl)-6-morpholino-9H- purin-9-yl)heptanamide [compound 73]
IC50 [6]: < 0.01 µM | IC50 [33]: 0.5 to 2 µM | IC50 [34]: 2 to 10 µM
